Laboratory results from patent publication US5643784A, “Indan derivatives” (H, Lundbeck A/S, priority 1990, dated 1997).

Columns and labels:
α1 adrenoceptors = test: Inhibition of 3H-prazosin binding to α1 adrenoceptors in rat brain in vitro; settings: for IC50: 3H-Prazosin 0.25 nM, rat brain, 25° C., 20 min, read-out: Receptor Binding, IC50 α1 3H-Praz
Method: INHIBITION OF ^3 H-PRAZOSIN BINDING TO α1 ADRENOCEPTORS IN RAT BRAIN IN VITRO
Method and results in Hyttel & Larsen, J. Neurochem, 44, 1615-1622, 1985; Skarsfeldt & Hyttel, Eur. J. Pharmacol. 125, 323-340, 1986.
(§1) Male Wistar (Mol:Wist) rats (125-200 g) are sacrificed and brain tissue is dissected and weighed. The tissue is homogenized (Ultra Turrax, 10 sec.) in 10 ml of ice-cold 50 nM Tris buffer pH 7,7 (at 25° C.). The homogenate is centrifuged twice at 20,000 g for 10 min. at 4° C. with rehomogenization of the pellet in 10 ml ice-cold buffer. The final pellet is homogenized in 400 vol (w/v) ice-cold buffer.
Incubation tubes kept on ice in triplicate receive 100 μl of drug solution in water (or water for total binding) and 4000μl of tissue suspension (final tissue content corresponds to 10 mg original tissue). The binding experiment is initiated by addition of 100 μl of ^3 H-Prazosin (final concentration 0.25 nM) and by placing the tubes in a 25° C. water bath. After incubation for 20 min. the samples are filtered under vacuum (0-50 mBar) through Whatman GF/F filters (25 mm). The tubes are rinsed with 5 ml ice-cold buffer which then are poured on the filters. Thereafter, the filters are washed with 5 ml of buffer. The filters are placed in counting vials and 4 ml of appropriate scintillation fluid (e.g. Picofluor™15) are added. After shaking for 1 h and storage 2 hrs in the dark the content of radioactivity is determined by liquid scintillation counting. Specific binding is obtained by subtracting the nonspecific binding in the presence of 1 μM of Prazosin.
(§2) For determination of the inhibition of binding five concentrations of drugs covering 3 decades are used.
The measured cpm are plotted against drug concentration on semilogarithmic paper and the best fitting S-shaped curve is drawn. The IC50 value is determined as the concentration at which the binding is 50% of the total binding in control samples minus the nonspecific binding in the presence of 1 μM of Prazosin.
^3 H-Prazosin=[furoyl-5-^3 H]-Prazosin from New England Nuclear, specific activity approximately 20 Ci/mmol.

5-HT2 receptors = target: T1, 5-HT2 receptors (Rattus norvegicus, UniProt P14842); test: Inhibition of 3H-ketanserin binding to 5-HT2 receptors in rat cortex in vitro; settings: for IC50: 3H-Ketanserin 0.5 nM, rat cortex, 37° C., 30 min, read-out: Receptor Binding, IC50 5-HT2 3H-Ket
T1 construct: cortical tissue is dissected and weighed; from tissue; host or cells: cortex of male Wistar rats, crude membranes
Method: Method in Hyttel, Pharmacology & Toxicology, 61, 126-129, 1987.
as §1, with “(125-250” for “(125-200”, “cortical” for “brain”, “mM tris” for “nM Tris”, “7.7” for “7,7”, “C.). The centrifuge glassware used in this step has been rinsed by sonication for 10 min. in ethanol.” for “C.).”, “500” for “400”
Incubation tubes kept on ice in triplicate receive 100 μl of drug solution in water (or water for total binding) and 2000 μl of tissue suspension (final tissue content corresponds to 4 mg original tissue). […] After incubation for 30 min. the samples are filtered under vacuum (0-50 mBar) through Whatman GF/F filters (25 mm). The tubes are rinsed with 5 ml ice-cold buffer which are then poured on the filters. Thereafter, the filters are washed with 2×5 ml of buffer. The filters are placed in counting vials and 4 ml of appropriate scintillation fluid (e.g. Picofluor™15) are added. After shaking for 1 h and storage 2 hrs in the dark the content of radioactivity is determined by liquid scintillation counting. Specific binding is obtained by subtracting the nonspecific binding in the presence of 1 μM mianserin.
as §2
The IC50 value is determined as the concentration at which the binding is 50% of the total binding in control samples minus the nonspecific binding in the presence of 1 μM mianserin.

dopamine D-2 receptors = target: T2, dopamine D-2 receptors (Rattus norvegicus, UniProt P61169); test: Inhibition of 3H-spiperone binding to dopamine D-2 receptors in rat corpus striatum in vitro; settings: for IC50: 3H-spiperone 0.5 nM, rat corpus striatum, 37° C., 10 min, read-out: Receptor Binding, IC50 DA D-2 3H-Spi
T2 construct: striatal tissue is dissected and weighed; from tissue; host or cells: corpus striatum of male Wistar rats, crude membranes
Method: INHIBITION OF ^3 H-SPIPERONE BINDING TO DOPAMINE D-2 RECEPTORS IN RAT CORPUS STRIATUM IN VITRO
By this method the inhibition by drugs of the binding of ^3 H-spiperone (0.5 nM) to dopamine D-2 receptors in membranes from rat corpus striatum is determined in vitro.
as §1, with “(Mol:Wistar)” for “(Mol:Wist)”, “(125-250” for “(125-200”, “striatal” for “brain”, “mM K-phosphate” for “nM Tris”, “7.4” for “7,7”, “1300” for “400”
Incubation tubes kept on ice in triplicate receive 100 μl of drug solution in water (or water for total binding) and 4000 μl of tissue suspension (final tissue content corresponds to 3.08 mg original tissue). The binding experimental is initiated by addition of 100 μl of ^3 H-spiperone (final concentration 0.5 nM) and by placing the tubes in a 37° C. water bath. After incubation for 10 min. the samples are filtered under vacuum (0-50 mBar) through Whatman GF/F filters (25 mm). The tubes are rinsed with 5 ml ice-cold buffer which are then poured on the filters. Thereafter, the filters are washed with 2×5 ml of buffer. The filters are placed in counting vials and 4 ml of appropriate scintillation fluid (e.g. Picofluor ™15) are added. After shaking for 1 h and storage 2 hrs in the dark the content of radioactivity is determined by liquid scintillation counting. Specific binding is obtained by subtracting the nonspecific binding in the presence of 10 μM of 6,7-ADTN.
as §2
^3 H-Spiperone=[phenyl-4-^3 H]-spiperone from Amersham International plc. England, specific activity 15-25 Ci/mmol.

T2 sequence (P61169 whole entry): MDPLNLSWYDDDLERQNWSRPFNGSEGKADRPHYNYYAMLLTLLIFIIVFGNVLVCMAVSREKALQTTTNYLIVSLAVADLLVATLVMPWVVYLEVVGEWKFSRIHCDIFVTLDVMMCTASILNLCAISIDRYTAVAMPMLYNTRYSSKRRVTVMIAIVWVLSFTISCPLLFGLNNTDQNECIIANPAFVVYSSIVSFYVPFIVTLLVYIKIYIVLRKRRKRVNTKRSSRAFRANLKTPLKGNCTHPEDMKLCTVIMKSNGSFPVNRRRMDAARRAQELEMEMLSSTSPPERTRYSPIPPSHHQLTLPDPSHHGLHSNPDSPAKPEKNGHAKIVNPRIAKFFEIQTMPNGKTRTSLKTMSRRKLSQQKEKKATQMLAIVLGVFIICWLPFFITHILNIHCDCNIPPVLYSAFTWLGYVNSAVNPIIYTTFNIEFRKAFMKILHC
T1 sequence (P14842 whole entry): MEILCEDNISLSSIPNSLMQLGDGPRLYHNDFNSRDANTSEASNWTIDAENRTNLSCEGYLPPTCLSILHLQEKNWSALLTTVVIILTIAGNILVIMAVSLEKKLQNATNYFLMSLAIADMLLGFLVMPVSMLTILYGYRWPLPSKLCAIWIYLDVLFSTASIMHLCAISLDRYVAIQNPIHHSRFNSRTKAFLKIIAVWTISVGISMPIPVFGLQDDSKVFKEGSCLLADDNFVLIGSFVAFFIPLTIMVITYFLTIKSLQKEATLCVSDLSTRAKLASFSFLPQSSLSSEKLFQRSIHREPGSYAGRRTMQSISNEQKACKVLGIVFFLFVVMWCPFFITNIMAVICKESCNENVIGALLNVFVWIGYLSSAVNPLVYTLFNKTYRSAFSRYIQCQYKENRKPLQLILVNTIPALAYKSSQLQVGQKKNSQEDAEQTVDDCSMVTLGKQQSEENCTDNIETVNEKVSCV

Compound	IC50 (α1 adrenoceptors)	IC50 (5-HT2 receptors)	IC50 (dopamine D-2 receptors)	affinity to α1 adrenoceptors (in words) (α1 adrenoceptors)	affinity to 5-HT2 receptors (in words) (5-HT2 receptors)	affinity to D-2 receptors (in words) (dopamine D-2 receptors)
Cc1ccc2c(c1)[C@H](N1CCN(CCN3CCNC3=O)CC1)C[C@H]2c1ccc(F)cc1 (relative stereo) [Compound 40, reference compound]	0.012 µM	0.00071 µM	0.043 µM			
CN1CCN(CCN2CCN([C@@H]3C[C@@H](c4ccc(F)cc4)c4cc(Cl)ccc43)CC2)C1=O (relative stereo) [Compound 18, Trans-1-[2-[4-[5-chloro-3-(4-fluorophenyl)-2,3-dihydro-1H-inden-1-yl]piperazin-1-yl]ethyl]-3-methyl-2-imidazolidinone]	0.6 µM	0.0028 µM	0.19 µM			
OCCN1CCN([C@@H]2C[C@@H](c3ccc(F)cc3)c3ccc(C(F)(F)F)cc32)CC1 (racemic) [Tefludazine, reference compound]	0.017 µM	0.0046 µM	0.01 µM	high affinity to all three receptor types	high affinity to all three receptor types	high affinity to all three receptor types
CC(C)N1CCN(CCN2CCN([C@@H]3C[C@@H](c4cccc(F)c4)c4cc(Cl)ccc43)CC2)C1=O (relative stereo) [Compound 28, Trans-1-[2-[4-[5-chloro-3-(3-fluorophenyl)-2,3-dihydro-1H-inden-1-yl]piperazin-1-yl]ethyl]-3-isopropyl-2-imidazolidinone]	0.97 µM	0.026 µM	0.49 µM			
CC(C)N1CCN(CCN2CCN([C@@H]3C[C@@H](c4ccccc4F)c4cc(Cl)ccc43)CC2)C1=O (relative stereo) [Compound 21, Trans-1-[2-[4-[5-chloro-3-(2-fluorophenyl)-2,3-dihydro-1H-inden-1-yl]piperazin-1-yl]ethyl]-3-isopropyl-2-imidazolidinone]	0.67 µM	0.0035 µM	0.92 µM			
CC(C)N1CCN(CCN2CCN([C@@H]3C[C@@H](c4ccc(Cl)cc4)c4cc(Cl)ccc43)CC2)C1=O (relative stereo) [Compound 27, Trans-1-[2-[4-[5-chloro-3-(4-chlorophenyl)-2,3-dihydro-1H-inden-1-yl]piperazin-1-yl]ethyl]-3-isopropyl-2-imidazolidinone]	0.18 µM	0.015 µM	0.28 µM			
Cc1cc([C@@H]2C[C@@H](N3CCN(CCN4CCNC4=O)CC3)c3ccc(Cl)cc32)cs1 (relative stereo) [Compound 7, Trans-1-[2-[4-[5-chloro-3-(2-methyl-4-thienyl)-2,3-dihydro-1H-inden-1-yl]piperazine-1-yl]ethyl]-2-imidazolidinone]	0.24 µM	0.0079 µM	2.8 µM			
Cc1cc([C@@H]2C[C@@H](N3CCN(CCO)CC3)c3ccc(Cl)cc32)cs1 (relative stereo) [Compound 6, Trans-4-[5-chloro-3-(2-methyl-4-thienyl)-2,3-dihydro-1H-inden-1-yl]-1-piperazineethanol]	1 µM	0.056 µM	2.6 µM			
O=C1NCCN1CCN1CCN([C@H]2C[C@H](c3ccc(F)cc3)c3cc(C(F)(F)F)ccc32)CC1 (single isomer, unassigned) [(+)-1]	0.33 µM	0.002 µM	0.29 µM			
O=C1NCCN1CCN1CCN([C@H]2C[C@H](c3ccc(F)cc3)c3cc(C(F)(F)F)ccc32)CC1 (relative stereo) [Compound 1, Trans-1-[2-[4-[3-(4-fluorophenyl)-5-(trifluoromethyl)-2,3-dihydro-1H-inden-11-yl]-1-piperazinyl]ethyl]-2-imidazolidinone]	0.32 µM	0.0029 µM	0.76 µM			
CC(C)N1CCN(CCN2CCN([C@@H]3C[C@@H](c4ccccc4)c4cc(Cl)ccc43)CC2)C1=O (relative stereo) [Compound 20, Trans-1-[2-[4-[5-chloro-3-phenyl-2,3-dihydro-1H-inden-1-yl]piperazin-1-yl]ethyl]-3-isopropyl-2-imidazolidinone]	0.51 µM	0.0099 µM	0.75 µM			
